Source: patent publication US20040241871A1, “Method and apparatus for analyzing endocrine-distrupting substances in vital sample” (priority 2001, published 2004)

Assay type: in vivo, human
Conditions: for Concentration of Chlordane in Vital Sample, Maternal Serum / Concentration of Chlordane in Vital Sample, Mother's Milk / Concentration of Chlordane in Vital Sample, Cord Serum / Concentration of Endocrine-Disrupting Substance in Vital Sample, Cord Serum / Concentration of Endocrine-Disrupting Substance in Vital Sample, Maternal Serum / Concentration of Endocrine-Disrupting Substance in Vital Sample, Mother's Milk: in fat; for Concentration of Chlordane in Vital Sample, Maternal Serum / Concentration of Chlordane in Vital Sample, Mother's Milk / Concentration of Chlordane in Vital Sample, Cord Serum: individual chlordanes; for PCB isomer value in the cord serum as compared with the maternal serum: cord serum vs maternal serum, confidence coefficient: 95% or more; for Concentration of Endocrine-Disrupting Substance in Vital Sample, Cord Serum / Concentration of Endocrine-Disrupting Substance in Vital Sample, Maternal Serum / Concentration of Endocrine-Disrupting Substance in Vital Sample, Mother's Milk: samples from 10 mothers
Description: Maternal serum, cord serum and mother's milk samples collected from 10 mothers were used (30 samples in total). These samples were used for the analysis test after obtaining the consent from the subjects.
The GPC column used was Shodex (registered trademark) EV-200AC Column (polystyrene-base hard gel column having an inner diameter of 2 mm and a length of 150 mm) manufactured by Showa Denko K. K.
A programmed temperature vaporizer (PTV) was equipped and in the GC part, an inactivated silica tube (2 m (length)×0.53 mm (inner diameter)) and capillary columns DB-5 (0.5 m (length)×0.25 mm (inner diameter), film thickness: 0.25 μm; and 60 m (length)×0.25 mm (inner diameter), film thickness: 0.1 μm), both manufactured by J & W Scientific, were used. After the injection of solution, the temperature was kept at 83° C. (for 5 minutes) and then elevated to 172° C. at 1° C./min and further to 270° C. at 50° C./min. The measurement was performed at 280° C.
In the main test below, the internal standard substances used were 3 kinds of PCBs marked by ^13C (3,3′,4,4′-tetrachlorobiphenyl, 3,3′,4,4′,5-pentachlorobiphenyl, 3,3′,4,4′,5,5′-hexachlorobiphenyl), hexachlorobenzene (HCB) and p,p′-dichlorodiphenyl dichloroethylene (DDE).
The cord serum (8 ml), the maternal serum (4 ml) and the mother's milk (2 ml) each was subjected to fat extraction according to the method by Patterson et al. More specifically, the sample was charged into a separating funnel, the internal standard substance was added, and then saturated ammonium sulfate, ethanol and hexane were added at a ratio of about 1:1:3. After shaking to cause separation into two layers, the aqueous layer was transferred to a different separating funnel and hexane was added thereto. After shaking to cause separation into two layers, the hexane layer was combined with the organic layer obtained at the first separation, washed with water, dried over anhydrous sodium sulfate, filtered, concentrated and dried. Thereafter, the total weight of fat was measured. The average fat amount was 0.197% in the cord serum, 0.895% in the maternal serum and 3.04% in the mother's milk.
Acetone/cyclohexane (3:7) (v/v) was passed through the GPC column at a flow rate of 0.1 ml/min and 20 μl of a solution obtained by dissolving the fat extracted above in 50 to 100 μl of a solvent having the same composition was injected into the GPC.
Based on the results in the preliminary measurement, the elution composition of 0 to 3.2 minutes after the injection of sample was discarded and the fraction of 3.2 to 5.2 minutes was collected in a sample loop (storage amount: 200 μl) and introduced into GC/MS at 5.2 to 7.5 minutes.
The results are shown in Table 1 together with analysis results of other endocrine-disrupting substances.

| SMILES | Concentration of Chlordane in Vital Sample, Maternal Serum [ppb] | Concentration of Chlordane in Vital Sample, Mother's Milk [ppb] | Concentration of Endocrine-Disrupting Substance in Vital Sample, Cord Serum [ppb] | Concentration of Endocrine-Disrupting Substance in Vital Sample, Maternal Serum [ppb] | Concentration of Endocrine-Disrupting Substance in Vital Sample, Mother's Milk [ppb] | other results |
| --- | --- | --- | --- | --- | --- | --- |
| ClC1=C(Cl)[C@]2(Cl)[C@H]3C[C@H](Cl)[C@H](Cl)[C@H]3[C@@]1(Cl)C2(Cl)Cl (relative stereo) [cis-Chlordane] | 0.86 | 0.93 |  |  |  |  |
| ClC1=C(Cl)[C@]2(Cl)[C@H]3[C@H]([C@H](Cl)C(Cl)[C@@H]3Cl)[C@@]1(Cl)C2(Cl)Cl (stereo partly drawn) [trans-Nonachlor] | 17.08 | 19.58 |  |  |  | Concentration of Chlordane in Vital Sample, Cord Serum: 16.35 ppb |
| Clc1cc(Cl)c(-c2cc(Cl)c(Cl)cc2Cl)cc1Cl [#153] |  |  |  |  |  | PCB isomer value in the cord serum as compared with the maternal serum: significantly low |
| Clc1ccc(-c2cc(Cl)c(Cl)c(Cl)c2Cl)c(Cl)c1Cl [#170] |  |  |  |  |  | PCB isomer value in the cord serum as compared with the maternal serum: significantly low |
| Clc1ccc(-c2cc(Cl)c(Cl)cc2Cl)cc1Cl [#118] |  |  |  |  |  | PCB isomer value in the cord serum as compared with the maternal serum: significantly low |
| ClC1=C(Cl)C2(Cl)C3C(Cl)C=CC3C1(Cl)C2(Cl)Cl (stereo not drawn) [Heptachlor] |  |  | 1.20 | 1.17 | 0.30 |  |
| ClC1=C(Cl)C2(Cl)C3C4OC4C(Cl)C3C1(Cl)C2(Cl)Cl (stereo not drawn) [HCE, heptachloroepoxide] |  |  | 1.55 | 2.61 | 3.06 |  |
| Clc1c(Cl)c(Cl)c(Cl)c(Cl)c1Cl [HCB, hexachlorobenzene] |  |  | 14.14 | 15.71 | 14.08 |  |
| Clc1cc(Cl)c(-c2cc(Cl)c(Cl)c(Cl)c2)c(Cl)c1 [#168] |  |  |  |  |  | PCB isomer value in the cord serum as compared with the maternal serum: significantly low |
| ClC1=C(Cl)[C@]2(Cl)C3C(Cl)C(Cl)CC3[C@@]1(Cl)C2(Cl)Cl (stereo partly drawn) [γ-Chlordane] | 1.43 | 1.66 |  |  |  | Concentration of Chlordane in Vital Sample, Cord Serum: 1.64 ppb |
| ClC1=C(Cl)[C@]2(Cl)[C@H]3[C@H]([C@H](Cl)[C@]4(Cl)O[C@H]34)[C@@]1(Cl)C2(Cl)Cl [Oxychlordane] | 6.30 | 6.49 |  |  |  | Concentration of Chlordane in Vital Sample, Cord Serum: 6.66 ppb |
| ClC(Cl)=C(c1ccc(Cl)cc1)c1ccc(Cl)cc1 [DDE, p,p′-dichlorodiphenyl dichloroethylene] |  |  | 278.63 | 314.48 | 343.62 |  |
| ClC1C(Cl)C(Cl)C(Cl)C(Cl)C1Cl (stereo not drawn) [HCH, hexachlorocyclohexane] |  |  | 189.54 | 271.49 | 315.58 |  |
| ClC1=C(Cl)[C@]2(Cl)[C@H]3[C@H]([C@H](Cl)C(Cl)[C@@H]3Cl)[C@@]1(Cl)C2(Cl)Cl (stereo partly drawn) [cis-Nonachlor] | 1.54 | 2.25 |  |  |  | Concentration of Chlordane in Vital Sample, Cord Serum: 0.91 ppb |
